# Experimental data published in paper PMC9598407, “Identification of Staphylococcus aureus Penicillin Binding Protein 4 (PBP4) Inhibitors” (Antibiotics, 2022).
# Columns and labels:
# [1] = tested on: S. aureus USA300; assay: Minimum inhibitory concentration (MIC) testing, strain USA300; assay type: cell-based, Staphylococcus aureus; details: for MIC: Staphylococcus aureus, USA300, read-out: Minimum inhibitory concentration
# Description: (§1) The approach used was to initially search for compounds that reverse the antibiotic resistance profile of wild type cells to that of a pbp4 mutant. To define screening conditions three strains were employed, a wild type USA300 MRSA strain, an isogenic pbp4 deletion strain, and a complemented strain harboring a plasmid wildtype pbp4 copy. The antibiotic susceptibility profile of each strain was measured to determine the magnitude with which PBP4 affects resistance to various antibiotics (Table 1). […]. We anticipated that the greater dynamic range of the latter could provide a means to reliably screen for agents that inhibit PBP4 function. […].
# (§2) S. aureus strain USA300 is a predominant cause of U.S. community-associated MRSA infections, whereas strain COL is a commonly studied hospital-associated MRSA strain. The S. aureus USA300 pbp4-null strain (USA300Δpbp4) and PBP4 complementation strain (USA300∆pbp4 pPBP4) have been previously described. Strain COLn is a laboratory derived tetracycline susceptible derivative of COL, whereas COLnex is a methicillin susceptible COLn derivative that has been cured of SCCmec thereby removing the mecA, which encodes PBP2a, and has been previously described. Strain CRB is a well-studied MRSA COLnex derivative that contains two amino acid substitutions (E183A and F241R) near the PBP4 active site and a 36-bp duplication 290-bp upstream of the pbp4 open reading frame leading to 20–40-fold overexpression of the gene. All strains were grown in Mueller Hinton (MH) broth at 37 °C, as indicated. Penicillin, streptomycin, ciprofloxacin, mupirocin, meropenem, and mitomycin C were purchased from Fisher Scientific (Waltham, MA, USA), whereas ceftobiprole was obtained from MedChemExpress LLC (Monmouth Junction, NJ, USA). The 30,000-member […]-EXP small molecule chemical library (Blocks 3–5) used in these studies was purchased from ChemBridge Corporation (San Diego, CA, USA).
# [2] = tested on: S. aureus USA300∆pbp4; assay: MIC testing, strain USA300∆pbp4; assay type: cell-based, Staphylococcus aureus; details: Staphylococcus aureus, USA300, read-out: Minimum inhibitory concentration
# Description: as §1, §2
# [3] = tested on: S. aureus USA300∆pbp4 pPBP4; assay: microbe, parasite or virus in culture; assay type: cell-based; details: Staphylococcus aureus, USA300, read-out: Minimum inhibitory concentration
# [4] = tested on: S. aureus COLnex; assay: MIC testing, strain COLnex; assay type: cell-based; details: Staphylococcus aureus, read-out: Minimum inhibitory concentration
# Description: (§3) To further evaluate their potential PBP4 inhibitor activity, prioritized compounds were tested for their ability to reverse PBP4 mediated antibiotic resistance in another S. aureus background using three isogenic strains that became available during our study (generous gift from Dr. S. Chatterjee; University of Maryland). These strains included: (1) COLnex, which is a methicillin susceptible strain, (2) CRB, a methicillin/ceftobiprole-resistant strain of COLnex that overproduces PBP4, and (3) CRB∆pbp4, a methicillin susceptible strain of CRB lacking the pbp4 gene.
# as §2
# [5] = tested on: S. aureus CRB; assay: MIC testing, strain CRB (PBP4 overproducer); assay type: cell-based, Staphylococcus aureus; details: for MIC: Staphylococcus aureus, read-out: Minimum inhibitory concentration, strain CRB
# Description: as §3, §2
# [6] = tested on: S. aureus CRB∆pbp4; assay: MIC testing, strain CRB∆pbp4; assay type: cell-based; details: Staphylococcus aureus, read-out: Minimum inhibitory concentration
# Description: as §3, §2
# [7] = tested on: S. aureus strain CRB; assay: Fractional inhibitory concentration checkerboard, ceftobiprole + putative PBP4 inhibitor, strain CRB; assay type: cell-based, Staphylococcus aureus; details: Staphylococcus aureus, read-out: CRB Alone BPR (ceftobiprole MIC alone)
# Description: (§4) Fractional inhibitory testing was performed in checkerboard format to determine whether putative PBP4 inhibitors potentiated the antimicrobial effects of β-lactams toward S. aureus strains USA300 and CRB, as previously described. To do so, in triplicate 10^5 CFU of each strain (10 µL) was added to individual wells of a microtiter plate containing 90 µL MH media. […] Plates were incubated at 37 °C for 16–20 h and the lowest concentration of each test agent that inhibited bacterial growth alone or in combination was determined by the naked eye. The fractional inhibitory concentration (FIC) index was calculated using the formula: FIC of A (MIC of drug A in combination/MIC of drug A alone) + FIC B ([…]/MIC of drug B alone). A synergistic interaction was defined as a FICI value of less than 0.5, an additive interaction was defined as a FICI value between 0.5 and 1.0, an indifferent interaction was defined as a FICI value between 1.0 and 4.0, and an antagonistic interaction was defined as a FICI value of more than 4.0 [46].
# [8] = tested on: S. aureus strain CRB∆pbp4; assay: Fractional inhibitory concentration checkerboard, ceftobiprole + putative PBP4 inhibitor, strain CRB∆pbp4; assay type: cell-based, Staphylococcus aureus; details: Staphylococcus aureus, read-out: CRB∆pbp4 Alone BPR (ceftobiprole MIC alone)
# [9] = tested on: S. aureus strain USA300; assay: microbe, parasite or virus in culture; assay type: cell-based; details: Staphylococcus aureus, USA300, read-out: Ceftobiprole resistance (MIC) without compound
# Description: as §4
Compound,MIC [1] [µg/mL],MIC [2] [µg/mL],MIC [3] [µg/mL],MIC [4] [µg/mL],Fold difference in ceftobiprole resistance ([5]; PBP4-overexpressor CRB versus CRB∆pbp4) [fold],MIC [5] [µg/mL],MIC [6] [µg/mL],MIC [7] [µg/mL],MIC [8] [µg/mL],MIC [9] [µg/mL],Fold increase in resistance provided by PBP4 ([1]; USA300 versus USA300∆pbp4 MIC) [fold],Minimum inhibitory concentration ([1]; strain USA300) [µg/mL]
"Nc1nc(/C(=N/O)C(=O)N[C@@H]2C(=O)N3C(C(=O)O)=C(/C=C4\CCN([C@@H]5CCNC5)C4=O)CS[C@H]23)ns1 [BPR, ceftobiprole]",0.5,0.25,0.5,0.25,512,128,0.25,128,0.25,1,–,–
"CCOc1ccc2ccccc2c1C(=O)N[C@@H]1C(=O)N2[C@@H]1SC(C)(C)[C@@H]2C(=O)O [NAF, nafcillin]",8,4,8,0.25,–,> 128,0.25,–,–,–,2,8
